Data from US9540391B2, “Isomannide derivatives as inhibitors of soluble epoxide hydrolase” (SANOFI, priority 2013, dated 2017).

Biological target: T1, recombinant sEH (Homo sapiens, UniProt P34913)
T1 construct: made in house; host or cells: Sf9 insect cells
T1 sequence (P34913 1-555): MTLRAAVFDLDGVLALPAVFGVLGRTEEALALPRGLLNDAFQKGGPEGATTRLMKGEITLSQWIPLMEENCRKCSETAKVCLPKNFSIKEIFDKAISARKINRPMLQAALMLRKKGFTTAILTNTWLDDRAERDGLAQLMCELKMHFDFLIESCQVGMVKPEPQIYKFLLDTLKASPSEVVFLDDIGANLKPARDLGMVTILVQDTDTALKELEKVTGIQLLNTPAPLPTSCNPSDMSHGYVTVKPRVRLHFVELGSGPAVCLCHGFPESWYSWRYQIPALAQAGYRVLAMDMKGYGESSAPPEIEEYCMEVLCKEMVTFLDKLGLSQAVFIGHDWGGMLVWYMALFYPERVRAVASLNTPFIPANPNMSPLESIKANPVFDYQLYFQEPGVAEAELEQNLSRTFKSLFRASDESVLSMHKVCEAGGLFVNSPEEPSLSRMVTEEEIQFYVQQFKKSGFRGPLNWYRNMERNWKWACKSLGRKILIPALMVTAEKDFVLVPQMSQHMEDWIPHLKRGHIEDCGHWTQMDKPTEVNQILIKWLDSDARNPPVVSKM
Assay: biochemical screening assay for inhibition of soluble epoxide hydrolase (fluorometric, Phome substrate)
Method in brief: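 Reading fluorescence before substrate addition and after completion corrected for autofluorescence. Reaction: 5 μM Phome, 2 nM recombinant human sEH (Sf9-expressed), compound 0.0001–10 μM, 25 mM Hepes with 0.01% albumin, 15 min pre-incubation then 60 min at 30 °C; IC50 derived from % inhibition.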

| SMILES | IC50 [nM] |
| --- | --- |
| Cc1ncccc1O[C@H]1CO[C@H]2[C@@H]1OC[C@@H]2NC(=O)NC1CCC2(CC1)OCCO2 [Example 266, 1-(1,4-Dioxa-spiro[4.5]dec-8-yl)-3-[(3S,3aR,6S,6aS)-6-(2-methyl-pyridin-3-yloxy)-hexahydro-furo[3,2-b]furan-3-yl]-urea] | 16 |
| Cc1ncccc1O[C@H]1CO[C@H]2[C@@H]1OC[C@@H]2NC(=O)N[C@H]1CC[C@H](C)CC1 [Example 267, 1-(trans-4-Methyl-cyclohexyl)-3-[(3S,3aR,6S,6aS)-6-(2-methyl-pyridin-3-yloxy)-hexahydro-furo[3,2-b]furan-3-yl]-urea] | 2 |
| Cc1ncccc1O[C@H]1CO[C@H]2[C@@H]1OC[C@@H]2NC(=O)NC1CCC(C)(C)CC1 [Example 268, 1-(4,4-Dimethyl-cyclohexyl)-3-[(3S,3aR,6S,6aS)-6-(2-methyl-pyridin-3-yloxy)-hexahydro-furo[3,2-b]furan-3-yl]-urea] | 2 |
| Cc1ncccc1O[C@H]1CO[C@H]2[C@@H]1OC[C@@H]2NC(=O)NC1C(C)CCCC1C (stereo partly drawn) [Example 269, 1-(2,6-Dimethyl-cyclohexyl)-3-[(3S,3aR,6S,6aS)-6-(2-methyl-pyridin-3-yloxy)-hexahydro-furo[3,2-b]furan-3-yl]-urea] | 2 |
| Cc1ncccc1O[C@H]1CO[C@H]2[C@@H]1OC[C@@H]2NC(=O)NC1CCCCC1(C)C (stereo partly drawn) [Example 270, 1-(2,2-Dimethyl-cyclohexyl)-3-[(3S,3aR,6S,6aS)-6-(2-methyl-pyridin-3-yloxy)-hexahydro-furo[3,2-b]furan-3-yl]-urea] | 16 |
| Cc1ncccc1O[C@H]1CO[C@H]2[C@@H]1OC[C@@H]2NC(=O)NC1CCCCC1C(C)(C)C (stereo partly drawn) [Example 271, 1-(2-tert-Butyl-cyclohexyl)-3-[(3S,3aR,6S,6aS)-6-(2-methyl-pyridin-3-yloxy)-hexahydro-furo[3,2-b]furan-3-yl]-urea] | 99 |
| Cc1ncccc1O[C@H]1CO[C@H]2[C@@H]1OC[C@@H]2NC(=O)N[C@H]1CC[C@@H](C)CC1 [Example 272, 1-(cis-4-Methyl-cyclohexyl)-3-[(3S,3aR,6S,6aS)-6-(2-methyl-pyridin-3-yloxy)-hexahydro-furo[3,2-b]furan-3-yl]-urea] | 1 |
| Cc1ncccc1O[C@H]1CO[C@H]2[C@@H]1OC[C@@H]2NC(=O)NC1CC(C)(C)CC(C)(C)C1 [Example 273, 1-[(3S,3aR,6S,6aS)-6-(2-Methyl-pyridin-3-yloxy)-hexahydro-furo[3,2-b]furan-3-yl]-3-(3,3,5,5-tetramethyl-cyclohexyl)-urea] | 1 |
| Cc1ncccc1O[C@H]1CO[C@H]2[C@@H]1OC[C@@H]2NC(=O)N[C@@H]1CCCC[C@H]1F [Example 274, 1-((1R,2R)-2-Fluoro-cyclohexyl)-3-[(3S,3aR,6S,6aS)-6-(2-methyl-pyridin-3-yloxy)-hexahydro-furo[3,2-b]furan-3-yl]-urea] | 14 |
| Cc1ncccc1O[C@H]1CO[C@H]2[C@@H]1OC[C@@H]2NC(=O)NC1CCCCC1C(F)(F)F (stereo partly drawn) [Example 275, 1-[(3S,3aR,6S,6aS)-6-(2-Methyl-pyridin-3-yloxy)-hexahydro-furo[3,2-b]furan-3-yl]-3-(2-trifluoromethyl-cyclohexyl)-urea] | 19 |
| Cc1ncccc1O[C@H]1CO[C@H]2[C@@H]1OC[C@@H]2NC(=O)NC1CCC(C)CC1C (stereo partly drawn) [Example 276, 1-(2,4-Dimethyl-cyclohexyl)-3-[(3S,3aR,6S,6aS)-6-(2-methyl-pyridin-3-yloxy)-hexahydro-furo[3,2-b]furan-3-yl]-urea] | 1 |
| Cc1ncccc1O[C@H]1CO[C@H]2[C@@H]1OC[C@@H]2NC(=O)NC1CCCCC1(F)F (stereo partly drawn) [Example 277, 1-(2,2-Difluoro-cyclohexyl)-3-[(3S,3aR,6S,6aS)-6-(2-methyl-pyridin-3-yloxy)-hexahydro-furo[3,2-b]furan-3-yl]-urea] | 2 |
| Cc1ncccc1O[C@H]1CO[C@H]2[C@@H]1OC[C@@H]2NC(=O)N1CCCC(F)(F)C1 [Example 278, 3,3-Difluoro-piperidine-1-carboxylic acid [(3S,3aR,6S,6aS)-6-(2-methyl-pyridin-3-yloxy)-hexahydro-furo[3,2-b]furan-3-yl]-amide] | 924 |
| Cc1ncccc1O[C@H]1CO[C@H]2[C@@H]1OC[C@@H]2NC(=O)NCc1cc(F)ccc1OC(F)(F)F [Example 279, 1-(5-Fluoro-2-trifluoromethoxy-benzyl)-3-[(3S,3aR,6S,6aS)-6-(2-methyl-pyridin-3-yloxy)-hexahydro-furo[3,2-b]furan-3-yl]-urea] | 1 |
| Cc1ncccc1O[C@H]1CO[C@H]2[C@@H]1OC[C@@H]2NC(=O)NC1CCC(C(C)(C)O)CC1 (stereo partly drawn) [Example 280, 1-[4-(1-Hydroxy-1-methyl-ethyl)-cyclohexyl]-3-[(3S,3aR,6S,6aS)-6-(2-methyl-pyridin-3-yloxy)-hexa-hydro-furo[3,2-b]furan-3-yl]-urea] | 12 |
| O=C(NC1CCCCC1)N[C@H]1CO[C@H]2[C@@H]1OC[C@@H]2C#Cc1ccc2c(c1)OCO2 [Example 281, 1-((3S,3aR,6S,6aR)-6-benzo[1,3]dioxol-5-ylethynyl-hexahydro-furo[3,2-b]furan-3-yl)-3-cyclohexyl-urea] | 75 |

| SMILES | IC50 [nM] |
| --- | --- |
| O=C(NC1CCCCC1)NC1COC2C(C#Cc3ccccc3)COC12 [Example 282, 1-Cyclohexyl-3-((3S,3aR,6S,-6aR)-6-phenylethynyl-hexa-hydro-furo[3,2-b]furan-3-yl)-urea] | 12 |
| CCCCOc1ccc(NC(=O)NC2COC3C(C#Cc4ccccc4)COC23)cc1 [Example 283, 1-(4-Butoxy-phenyl)-3-[(3S,3aR,6R)-6-((S)-phenylethynyl)-hexahydro-furo[3,2-b]furan-3-yl]-urea] | 70 |
| COc1cc(NC(=O)N[C@H]2CO[C@@H]3[C@@H]2OC[C@H]3C#Cc2ccccc2)cc(OC)c1 [Example 284, 1-(3,5-Dimethoxy-phenyl)-3-[(3S,3aR,6R)-6-((S)-phenylethynyl)-hexahydro-furo[3,2-b]furan-3-yl]-urea] | 71 |
| Cc1cc(C)cc(NC(=O)NC2COC3C(C#Cc4ccccc4)COC23)c1 [Example 285, 1-(3,5-Dimethyl-phenyl)-3-[(3S,3aR,6R)-6-((S)-phenylethynyl)-hexahydro-furo[3,2-b]furan-3-yl]-urea] | 21 |
| O=C(Nc1ccccc1)N[C@H]1CO[C@@H]2[C@@H]1OC[C@H]2C#Cc1ccccc1 [Example 286, 1-Phenyl-3-[(3S,3aR,6R)-6-((S)-phenylethynyl)-hexa-hydro-furo[3,2-b]furan-3-yl]-urea] | 227 |
| O=C(Nc1ccc(OCc2ccccc2)cc1)NC1COC2C(C#Cc3ccccc3)COC12 [Example 287, 1-(4-Benzyloxy-phenyl)-3-[(3S,3aR,6R)-6-((S)-phenylethynyl)-hexahydro-furo[3,2-b]furan-3-yl]-urea] | 82 |
| O=C(NCc1ccc(F)cc1)N[C@H]1CO[C@@H]2[C@@H]1OC[C@H]2C#Cc1ccccc1 [Example 288, 1-(4-Fluoro-benzyl)-3-[(3S,3aR,6R)-6-((S)-phenylethynyl)-hexahydro-furo[3,2-b]furan-3-yl]-urea] | 147 |
| Cc1cccc(NC(=O)N[C@H]2CO[C@@H]3[C@@H]2OC[C@H]3C#Cc2ccccc2)c1 [Example 289, 1-[(3S,3aR,6R)-6-((S)-Phenylethynyl)-hexahydro-furo[3,2-b]furan-3-yl]-3-m-tolyl-urea] | 35 |
| O=C(Nc1ccc(Cl)c(Cl)c1)NC1COC2C(C#Cc3ccccc3)COC12 [Example 290, 1-(3,4-Dichloro-phenyl)-3-[(3S,3aR,6R)-6-((S)-phenylethynyl)-hexahydro-furo[3,2-b]furan-3-yl]-urea] | 13 |
| Cc1cccc(CNC(=O)NC2COC3C(C#Cc4ccccc4)COC23)c1 [Example 291, 1-(3-Methyl-benzyl)-3-[(3S,3aR,6R)-6-((S)-phenylethynyl)-hexahydro-furo[3,2-b]furan-3-yl]-urea] | 37 |
| O=C(Nc1ccc(F)cc1)NC1COC2C(C#Cc3ccccc3)COC12 [Example 292, 1-(4-Fluoro-phenyl)-3-[(3S,3aR,6R)-6-((S)-phenylethynyl)-hexahydro-furo[3,2-b]furan-3-yl]-urea] | 46 |
| O=C(Nc1ccc2c(c1)OCO2)N[C@H]1CO[C@H]2[C@@H]1OC[C@@H]2C#Cc1ccccc1 [Example 293, 1-Benzo[1,3]dioxol-5-yl-3-((3S,3aR,6S,6aR)-6-phenylethynyl-hexahydro-furo[3,2-b]furan-3-yl)-urea] | 71 |
| O=C(Nc1cccc(F)c1)N[C@H]1CO[C@H]2[C@@H]1OC[C@@H]2C#Cc1ccccc1 [Example 294, 1-(3-Fluoro-phenyl)-3-((3S,3aR,6S,6aR)-6-phenylethynyl-hexahydro-furo[3,2-b]furan-3-yl)-urea] | 123 |
| O=C(Nc1ccc2c(c1)OCCO2)NC1COC2C(C#Cc3ccccc3)COC12 [Example 295, 1-(2,3-Dihydro-benzo[1,4]-dioxin-6-yl)-3-((3S,3aR,6S,-6aR)-6-phenylethynyl-hexa-hydro-furo[3,2-b]furan-3-yl)-urea] | 112 |
| O=C(NCCc1cccs1)N[C@H]1CO[C@H]2[C@@H]1OC[C@@H]2C#Cc1ccccc1 [Example 296, 1-((3S,3aR,6S,6aR)-6-Phenylethynyl-hexahydro-furo[3,2-b]furan-3-yl)-3-(2-thiophen-2-yl-ethyl)-urea] | 100 |
